Reference: the kinase profiling compilation of Christmann-Franck et al. (2016)

How the values were obtained:
Assay in all cases: KINOMEscan competition binding
Conditions in all cases: compound 10.0 µM
LTK (human) = LTK (human) (UniProt P29376)
TESK1 (human) = TESK1 (human) (UniProt Q15569)
TSSK1B (human) = TSSK1B (human) (UniProt Q9BXA7)
TLK1 (human) = TLK1 (human) (UniProt Q9UKI8)
PRKD2 (human) = PRKD2 (human) (UniProt Q9BZL6)
CSNK1A1L (human) = CSNK1A1L (human) (UniProt Q8N752)
CAMKK1 (human) = CAMKK1 (human) (UniProt Q8N5S9)
RPS6KA1 KD2 (human) = RPS6KA1 KD2 (human) (UniProt Q15418)
TNNI3K (human) = TNNI3K (human) (UniProt Q59H18)
BMPR1B (human) = BMPR1B (human) (UniProt O00238)
SRPK3 (human) = SRPK3 (human) (UniProt Q9UPE1)
MAPK13 (human) = MAPK13 (human) (UniProt O15264)
CAMK4 (human) = CAMK4 (human) (UniProt Q16566)
TNK2 (human) = TNK2 (human) (UniProt Q07912)
CHUK (human) = CHUK (human) (UniProt O15111)
PRKCD (human) = PRKCD (human) (UniProt Q05655)
CDC42BPG (human) = CDC42BPG (human) (UniProt Q6DT37)
PRKCQ (human) = PRKCQ (human) (UniProt Q04759)
PHKG1 (human) = PHKG1 (human) (UniProt Q16816)
TTK (human) = TTK (human) (UniProt P33981)
EPHB4 (human) = EPHB4 (human) (UniProt P54760)
[1] = molecular target: TYK2 JH1 catalytic (human) (UniProt P29597)
CAMK1G (human) = CAMK1G (human) (UniProt Q96NX5)
PRKAA1 (human) = PRKAA1 (human) (UniProt Q13131)
RAF1 (human) = RAF1 (human) (UniProt P04049)
CDC42BPB (human) = CDC42BPB (human) (UniProt Q9Y5S2)
EIF2AK2 (human) = EIF2AK2 (human) (UniProt P19525)
ACVR1 (human) = ACVR1 (human) (UniProt Q04771)
SRMS (human) = SRMS (human) (UniProt Q9H3Y6)
EPHA3 (human) = EPHA3 (human) (UniProt P29320)
TAOK3 (human) = TAOK3 (human) (UniProt Q9H2K8)
RPS6KA1 KD1 (human) = RPS6KA1 KD1 (human) (UniProt Q15418)
PAK2 (human) = PAK2 (human) (UniProt Q13177)
SIK1 (human) = SIK1 (human) (UniProt P57059)
CSNK2A2 (human) = CSNK2A2 (human) (UniProt P19784)
EPHA1 (human) = EPHA1 (human) (UniProt P21709)
NLK (human) = NLK (human) (UniProt Q9UBE8)
[2] = tested on: KIT (human), P10721 [V559D]
MAP4K4 (human) = MAP4K4 (human) (UniProt O95819)
PRKG2 (human) = PRKG2 (human) (UniProt Q13237)

Chain of TESK1 (human) (Q15569 whole entry, looked up): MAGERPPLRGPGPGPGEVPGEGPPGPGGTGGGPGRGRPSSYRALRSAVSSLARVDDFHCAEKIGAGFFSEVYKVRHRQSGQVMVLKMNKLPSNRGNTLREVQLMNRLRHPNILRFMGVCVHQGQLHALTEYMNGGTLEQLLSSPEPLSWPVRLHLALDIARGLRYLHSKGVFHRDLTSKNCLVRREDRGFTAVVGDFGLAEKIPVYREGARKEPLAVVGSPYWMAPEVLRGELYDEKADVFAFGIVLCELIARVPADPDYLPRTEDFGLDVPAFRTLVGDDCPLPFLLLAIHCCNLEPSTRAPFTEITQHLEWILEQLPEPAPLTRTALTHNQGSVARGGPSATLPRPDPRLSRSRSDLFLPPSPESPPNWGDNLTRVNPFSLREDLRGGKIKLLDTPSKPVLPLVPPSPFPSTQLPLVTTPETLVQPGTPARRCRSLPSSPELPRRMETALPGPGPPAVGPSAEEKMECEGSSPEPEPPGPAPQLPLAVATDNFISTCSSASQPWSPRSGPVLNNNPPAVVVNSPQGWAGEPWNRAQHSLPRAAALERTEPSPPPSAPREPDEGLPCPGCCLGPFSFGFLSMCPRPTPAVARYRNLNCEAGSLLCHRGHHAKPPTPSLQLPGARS
Chain of RPS6KA1 KD2 (human) (Q15418 whole entry, looked up): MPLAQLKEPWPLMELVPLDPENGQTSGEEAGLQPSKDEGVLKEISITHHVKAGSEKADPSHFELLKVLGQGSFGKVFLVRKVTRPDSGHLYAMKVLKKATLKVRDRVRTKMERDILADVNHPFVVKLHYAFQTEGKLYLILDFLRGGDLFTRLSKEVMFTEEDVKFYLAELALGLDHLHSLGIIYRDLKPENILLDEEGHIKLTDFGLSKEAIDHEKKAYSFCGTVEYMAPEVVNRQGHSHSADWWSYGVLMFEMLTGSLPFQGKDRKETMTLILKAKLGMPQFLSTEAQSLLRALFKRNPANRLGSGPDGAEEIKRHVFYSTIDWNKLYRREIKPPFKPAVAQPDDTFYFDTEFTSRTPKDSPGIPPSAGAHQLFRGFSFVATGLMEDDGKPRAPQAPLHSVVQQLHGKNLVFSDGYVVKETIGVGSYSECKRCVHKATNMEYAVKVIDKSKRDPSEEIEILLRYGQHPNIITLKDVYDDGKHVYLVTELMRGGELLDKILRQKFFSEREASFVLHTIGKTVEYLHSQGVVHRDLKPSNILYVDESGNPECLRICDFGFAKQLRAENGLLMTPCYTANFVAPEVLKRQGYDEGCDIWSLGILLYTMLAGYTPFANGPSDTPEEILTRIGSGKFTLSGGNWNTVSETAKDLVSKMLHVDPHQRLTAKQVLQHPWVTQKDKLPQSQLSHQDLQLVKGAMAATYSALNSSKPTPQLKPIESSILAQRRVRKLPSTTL
Chain of RPS6KA1 KD1 (human) (Q15418 whole entry, looked up): as above
Chain of TNK2 (human) (Q07912 whole entry, looked up): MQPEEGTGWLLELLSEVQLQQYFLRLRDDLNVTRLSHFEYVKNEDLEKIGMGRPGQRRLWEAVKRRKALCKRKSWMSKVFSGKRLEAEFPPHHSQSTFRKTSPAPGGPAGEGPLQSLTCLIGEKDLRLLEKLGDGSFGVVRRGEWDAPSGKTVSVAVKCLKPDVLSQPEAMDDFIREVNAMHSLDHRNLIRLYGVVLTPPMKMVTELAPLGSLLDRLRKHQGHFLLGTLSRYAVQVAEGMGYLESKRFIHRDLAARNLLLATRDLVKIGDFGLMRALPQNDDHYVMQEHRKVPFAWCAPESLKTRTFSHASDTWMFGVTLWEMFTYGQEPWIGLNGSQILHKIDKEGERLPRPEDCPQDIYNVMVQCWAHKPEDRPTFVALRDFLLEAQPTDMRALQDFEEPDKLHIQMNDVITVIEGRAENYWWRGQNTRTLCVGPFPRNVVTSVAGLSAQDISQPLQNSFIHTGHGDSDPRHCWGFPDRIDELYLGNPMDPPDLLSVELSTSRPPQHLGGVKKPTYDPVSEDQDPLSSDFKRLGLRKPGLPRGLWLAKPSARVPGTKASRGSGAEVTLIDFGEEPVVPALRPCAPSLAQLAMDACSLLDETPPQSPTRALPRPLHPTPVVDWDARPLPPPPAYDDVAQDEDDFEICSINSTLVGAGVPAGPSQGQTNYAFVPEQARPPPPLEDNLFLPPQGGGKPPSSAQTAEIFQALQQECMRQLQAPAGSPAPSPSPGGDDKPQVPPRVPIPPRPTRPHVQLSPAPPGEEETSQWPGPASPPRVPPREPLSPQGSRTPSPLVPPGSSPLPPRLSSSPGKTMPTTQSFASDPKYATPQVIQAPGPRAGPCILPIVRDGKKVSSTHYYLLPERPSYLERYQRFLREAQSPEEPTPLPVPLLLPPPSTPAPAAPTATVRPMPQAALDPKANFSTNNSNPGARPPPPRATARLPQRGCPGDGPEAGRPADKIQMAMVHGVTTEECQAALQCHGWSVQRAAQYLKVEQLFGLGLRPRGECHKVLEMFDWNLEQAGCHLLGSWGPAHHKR
Chain of PRKCD (human) (Q05655 whole entry, looked up): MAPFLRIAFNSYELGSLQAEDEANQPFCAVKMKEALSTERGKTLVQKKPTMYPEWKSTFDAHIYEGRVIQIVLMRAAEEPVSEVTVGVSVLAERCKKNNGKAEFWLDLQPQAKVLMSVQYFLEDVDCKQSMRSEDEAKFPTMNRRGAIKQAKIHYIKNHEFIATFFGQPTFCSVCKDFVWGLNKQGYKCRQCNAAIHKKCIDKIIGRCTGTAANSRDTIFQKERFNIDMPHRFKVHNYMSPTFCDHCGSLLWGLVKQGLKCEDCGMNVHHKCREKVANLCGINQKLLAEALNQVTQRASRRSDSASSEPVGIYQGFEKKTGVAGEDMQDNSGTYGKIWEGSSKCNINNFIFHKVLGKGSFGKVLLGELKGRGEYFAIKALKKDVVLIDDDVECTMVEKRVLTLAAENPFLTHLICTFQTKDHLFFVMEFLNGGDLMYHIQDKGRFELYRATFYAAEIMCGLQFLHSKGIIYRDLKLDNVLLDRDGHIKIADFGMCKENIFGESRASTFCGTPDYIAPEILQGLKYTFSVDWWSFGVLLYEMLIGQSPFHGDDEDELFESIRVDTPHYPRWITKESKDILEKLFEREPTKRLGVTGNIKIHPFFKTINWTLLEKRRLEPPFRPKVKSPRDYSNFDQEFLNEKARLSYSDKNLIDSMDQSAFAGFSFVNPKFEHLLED
Chain of TNNI3K (human) (Q59H18 whole entry, looked up): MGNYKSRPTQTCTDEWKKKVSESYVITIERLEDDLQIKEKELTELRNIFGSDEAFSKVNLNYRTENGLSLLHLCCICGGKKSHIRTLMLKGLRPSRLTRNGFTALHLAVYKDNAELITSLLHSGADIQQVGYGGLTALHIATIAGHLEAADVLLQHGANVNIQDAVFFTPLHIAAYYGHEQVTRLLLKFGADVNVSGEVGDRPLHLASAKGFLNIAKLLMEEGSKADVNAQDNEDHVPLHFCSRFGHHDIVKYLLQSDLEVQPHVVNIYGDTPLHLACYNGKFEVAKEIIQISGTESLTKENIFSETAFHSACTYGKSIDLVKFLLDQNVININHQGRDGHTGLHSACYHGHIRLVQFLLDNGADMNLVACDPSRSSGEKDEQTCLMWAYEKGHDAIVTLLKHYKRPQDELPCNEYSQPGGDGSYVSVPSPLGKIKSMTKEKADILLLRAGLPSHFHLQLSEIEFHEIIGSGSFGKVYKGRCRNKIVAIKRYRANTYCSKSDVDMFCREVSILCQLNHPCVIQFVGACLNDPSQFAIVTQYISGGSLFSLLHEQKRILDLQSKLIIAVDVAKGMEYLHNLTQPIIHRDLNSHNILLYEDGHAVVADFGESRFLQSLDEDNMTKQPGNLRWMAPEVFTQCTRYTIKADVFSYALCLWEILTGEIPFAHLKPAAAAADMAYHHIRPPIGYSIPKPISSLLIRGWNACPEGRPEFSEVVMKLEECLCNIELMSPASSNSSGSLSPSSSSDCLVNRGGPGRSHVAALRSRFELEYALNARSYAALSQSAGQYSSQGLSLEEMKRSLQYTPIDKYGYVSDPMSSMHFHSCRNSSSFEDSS
Chain of MAPK13 (human) (O15264 whole entry, looked up): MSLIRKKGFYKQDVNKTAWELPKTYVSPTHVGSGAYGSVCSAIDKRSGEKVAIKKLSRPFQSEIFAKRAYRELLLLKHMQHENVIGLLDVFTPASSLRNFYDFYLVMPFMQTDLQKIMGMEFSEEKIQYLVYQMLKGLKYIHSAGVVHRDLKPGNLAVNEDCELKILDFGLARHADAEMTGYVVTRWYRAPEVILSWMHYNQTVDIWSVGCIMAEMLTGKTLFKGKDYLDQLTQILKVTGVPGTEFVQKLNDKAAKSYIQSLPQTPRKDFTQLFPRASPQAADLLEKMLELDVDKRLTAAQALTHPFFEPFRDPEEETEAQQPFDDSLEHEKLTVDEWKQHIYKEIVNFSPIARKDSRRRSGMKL
Chain of EIF2AK2 (human) (P19525 whole entry, looked up): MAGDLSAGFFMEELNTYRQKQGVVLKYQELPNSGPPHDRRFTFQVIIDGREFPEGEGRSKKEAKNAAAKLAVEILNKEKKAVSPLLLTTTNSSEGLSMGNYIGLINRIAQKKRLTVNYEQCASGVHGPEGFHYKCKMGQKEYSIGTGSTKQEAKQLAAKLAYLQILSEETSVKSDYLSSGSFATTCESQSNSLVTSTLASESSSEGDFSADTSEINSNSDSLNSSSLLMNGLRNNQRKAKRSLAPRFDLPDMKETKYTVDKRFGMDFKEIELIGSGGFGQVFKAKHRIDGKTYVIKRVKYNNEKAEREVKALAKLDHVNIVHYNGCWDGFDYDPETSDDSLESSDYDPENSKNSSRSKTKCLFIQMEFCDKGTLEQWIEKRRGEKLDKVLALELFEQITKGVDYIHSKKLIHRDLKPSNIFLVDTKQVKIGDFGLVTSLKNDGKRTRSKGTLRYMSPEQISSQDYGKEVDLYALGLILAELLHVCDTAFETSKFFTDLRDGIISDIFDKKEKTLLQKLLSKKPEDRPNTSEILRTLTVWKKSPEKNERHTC

kinase still bound, per cent of control (LTK (human)) [%] | kinase still bound, per cent of control (TESK1 (human)) [%] | kinase still bound, per cent of control (TSSK1B (human)) [%] | kinase still bound, per cent of control (TLK1 (human)) [%] | kinase still bound, per cent of control (PRKD2 (human)) [%] | kinase still bound, per cent of control (CSNK1A1L (human)) [%] | kinase still bound, per cent of control (CAMKK1 (human)) [%] | kinase still bound, per cent of control (RPS6KA1 KD2 (human)) [%] | kinase still bound, per cent of control (TNNI3K (human)) [%] | kinase still bound, per cent of control (BMPR1B (human)) [%] | kinase still bound, per cent of control (SRPK3 (human)) [%] | kinase still bound, per cent of control (MAPK13 (human)) [%] | kinase still bound, per cent of control (CAMK4 (human)) [%] | kinase still bound, per cent of control (TNK2 (human)) [%] | kinase still bound, per cent of control (PRKCD (human)) [%] | kinase still bound, per cent of control (CDC42BPG (human)) [%] | kinase still bound, per cent of control (PRKCQ (human)) [%] | kinase still bound, per cent of control (PHKG1 (human)) [%] | kinase still bound, per cent of control (TTK (human)) [%] | kinase still bound, per cent of control (EPHB4 (human)) [%] | Compound | other results
100 | 100 | 100 | 100 | 100 | 100 | 100 | 100 | 12 | 100 | 100 | 100 | 100 | 100 | 100 | 100 | 100 | 100 | 100 | 6.9 | Cc1ccc(C(=O)Nc2cccc(C(F)(F)F)c2)cc1Nc1cncc(C(N)=O)c1 | kinase still bound, per cent of control (CHUK (human)): 100%; kinase still bound, per cent of control [1]: 100%; kinase still bound, per cent of control (CAMK1G (human)): 100%; kinase still bound, per cent of control (PRKAA1 (human)): 100%; kinase still bound, per cent of control (RAF1 (human)): 4.5%; kinase still bound, per cent of control (CDC42BPB (human)): 100%; kinase still bound, per cent of control (EIF2AK2 (human)): 100%; kinase still bound, per cent of control (ACVR1 (human)): 100%; kinase still bound, per cent of control (SRMS (human)): 100%; kinase still bound, per cent of control (EPHA3 (human)): 8.8%; kinase still bound, per cent of control (TAOK3 (human)): 100%; kinase still bound, per cent of control (RPS6KA1 KD1 (human)): 100%; kinase still bound, per cent of control (PAK2 (human)): 100%; kinase still bound, per cent of control (SIK1 (human)): 100%; kinase still bound, per cent of control (CSNK2A2 (human)): 100%; kinase still bound, per cent of control (EPHA1 (human)): 100%; kinase still bound, per cent of control (NLK (human)): 100%; kinase still bound, per cent of control [2]: 0%; kinase still bound, per cent of control (MAP4K4 (human)): 100%; kinase still bound, per cent of control (PRKG2 (human)): 100%
100 | 100 | 100 | 100 | 100 | 100 | 100 | 100 | 100 | 100 | 100 | 100 | 100 | 100 | 0 | 100 | 100 | 100 | 100 | 100 | COc1cc(C(=O)NC2CCN(C)CC2)ccc1Nc1ncc2c(n1)N(C1CCCC1)CCC(=O)N2C(C)C | kinase still bound, per cent of control (CHUK (human)): 100%; kinase still bound, per cent of control [1]: 100%; kinase still bound, per cent of control (CAMK1G (human)): 100%; kinase still bound, per cent of control (PRKAA1 (human)): 100%; kinase still bound, per cent of control (RAF1 (human)): 100%; kinase still bound, per cent of control (CDC42BPB (human)): 100%; kinase still bound, per cent of control (EIF2AK2 (human)): 100%; kinase still bound, per cent of control (ACVR1 (human)): 100%; kinase still bound, per cent of control (SRMS (human)): 100%; kinase still bound, per cent of control (EPHA3 (human)): 100%; kinase still bound, per cent of control (TAOK3 (human)): 100%; kinase still bound, per cent of control (RPS6KA1 KD1 (human)): 100%; kinase still bound, per cent of control (PAK2 (human)): 100%; kinase still bound, per cent of control (SIK1 (human)): 100%; kinase still bound, per cent of control (CSNK2A2 (human)): 100%; kinase still bound, per cent of control (EPHA1 (human)): 100%; kinase still bound, per cent of control (NLK (human)): 100%; kinase still bound, per cent of control [2]: 100%; kinase still bound, per cent of control (MAP4K4 (human)): 100%; kinase still bound, per cent of control (PRKG2 (human)): 100%

Compound | kinase still bound, per cent of control (LTK (human)) [%] | kinase still bound, per cent of control (TESK1 (human)) [%] | kinase still bound, per cent of control (TSSK1B (human)) [%] | kinase still bound, per cent of control (TLK1 (human)) [%] | kinase still bound, per cent of control (PRKD2 (human)) [%] | kinase still bound, per cent of control (CSNK1A1L (human)) [%] | kinase still bound, per cent of control (CAMKK1 (human)) [%] | kinase still bound, per cent of control (RPS6KA1 KD2 (human)) [%] | kinase still bound, per cent of control (TNNI3K (human)) [%] | kinase still bound, per cent of control (BMPR1B (human)) [%] | kinase still bound, per cent of control (SRPK3 (human)) [%] | kinase still bound, per cent of control (MAPK13 (human)) [%] | kinase still bound, per cent of control (CAMK4 (human)) [%] | kinase still bound, per cent of control (TNK2 (human)) [%] | kinase still bound, per cent of control (PRKCD (human)) [%] | kinase still bound, per cent of control (CDC42BPG (human)) [%] | kinase still bound, per cent of control (PRKCQ (human)) [%] | kinase still bound, per cent of control (PHKG1 (human)) [%] | kinase still bound, per cent of control (TTK (human)) [%] | kinase still bound, per cent of control (EPHB4 (human)) [%] | other results
N#Cc1c(NC(=O)c2cccc3ccccc23)sc2c1CCCC2 | 90 | 83 | 100 | 76 | 88 | 66 | 91 | 78 | 52 | 84 | 100 | 46 | 100 | 77 | 100 | 81 | 86 | 100 | 91 | 100 | kinase still bound, per cent of control [1]: 100%; kinase still bound, per cent of control (CAMK1G (human)): 90%; kinase still bound, per cent of control (PRKAA1 (human)): 80%; kinase still bound, per cent of control (RAF1 (human)): 100%; kinase still bound, per cent of control (CDC42BPB (human)): 80%; kinase still bound, per cent of control (EIF2AK2 (human)): 100%; kinase still bound, per cent of control (ACVR1 (human)): 64%; kinase still bound, per cent of control (SRMS (human)): 84%; kinase still bound, per cent of control (EPHA3 (human)): 100%; kinase still bound, per cent of control (TAOK3 (human)): 87%; kinase still bound, per cent of control (RPS6KA1 KD1 (human)): 100%; kinase still bound, per cent of control (PAK2 (human)): 97%; kinase still bound, per cent of control (SIK1 (human)): 92%; kinase still bound, per cent of control (CSNK2A2 (human)): 94%; kinase still bound, per cent of control (EPHA1 (human)): 85%; kinase still bound, per cent of control (NLK (human)): 65%; kinase still bound, per cent of control [2]: 60%; kinase still bound, per cent of control (MAP4K4 (human)): 66%; kinase still bound, per cent of control (PRKG2 (human)): 86%
